Experimental data reported in PubChem BioAssay (NCI).
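All cell lines were grown in 96-well plates and treated with compound for 48 hours. The concentration for full growth arrest is given as TGI.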

How the values were obtained:
Assay in all cases: NCI anticancer screen, dose series, 48 h
MDA-MB-231 breast = test system: MDA-MB-231 breast
SN12C renal = test system: SN12C renal
M14 melanoma = test system: M14 melanoma
PC-3 prostate = test system: PC-3 prostate
NCI-H226 lung = test system: NCI-H226 lung
SF-268 CNS = test system: SF-268 CNS
UO-31 renal = test system: UO-31 renal
MALME-3M melanoma = test system: MALME-3M melanoma
HCC-2998 colon = test system: HCC-2998 colon
SK-MEL-28 melanoma = test system: SK-MEL-28 melanoma
SR leukemia = test system: SR leukemia

| Structure (SMILES) | TGI (MDA-MB-231 breast) | TGI (SN12C renal) | TGI (M14 melanoma) | TGI (PC-3 prostate) | TGI (NCI-H226 lung) | TGI (SF-268 CNS) | TGI (UO-31 renal) | TGI (MALME-3M melanoma) | TGI (HCC-2998 colon) | TGI (SK-MEL-28 melanoma) | TGI (SR leukemia) |
| --- | --- | --- | --- | --- | --- | --- | --- | --- | --- | --- | --- |
| c1ccc2nc3[nH]c4ccccc4c3cc2c1 | 2.64 µM | 3.34 µM | 1.85 µM | 4.09 µM | 18.3 µM | 7.3 µM | 13.1 µM | 2.12 µM | 2.85 µM |  |  |
| O=C1CN(c2ccc(Cl)cc2)C(=O)CN1CCN1CC(=O)N(c2ccc(Cl)cc2)CC1=O |  | > 100 µM | > 100 µM | > 100 µM |  | > 100 µM | > 100 µM | > 100 µM | > 100 µM | > 100 µM | > 100 µM |
| CN1N=C2c3ccccc3CC[C@H]2C1c1ccccc1 (stereo partly drawn) |  | > 100 µM | > 100 µM |  | > 100 µM | > 100 µM | > 100 µM | 72.9 µM | > 100 µM | > 100 µM | > 100 µM |
| CCc1cccc(C(C)C)c1NC(=O)C(=O)C(C(=O)C(=O)OC)c1nc2ccccc2[nH]c1=O (stereo not drawn) |  | > 100 µM | > 100 µM |  | > 100 µM | > 100 µM | > 100 µM | > 100 µM | > 100 µM | > 100 µM | > 100 µM |
| N=c1c2c3n(c4c(=O)n(-c5ccccc5)c(=S)n(c(=O)n1-c1ccccc1)c24)CCCCC3 | > 100 µM | > 100 µM | > 100 µM | > 100 µM | > 100 µM | > 100 µM | > 100 µM | > 100 µM | > 100 µM | > 100 µM |  |
| NC(=O)c1n[nH]n(-c2ccccc2)c1=O | > 100 µM | > 100 µM | > 100 µM | > 100 µM | > 100 µM | > 100 µM | > 100 µM | > 100 µM | > 100 µM | > 100 µM |  |
| CCOC(=O)CCC(C(=O)OCC)n1nc2ccc(Nc3c(C)[n+]([O-])c4cc(Cl)ccc4[n+]3[O-])cc2n1 (stereo not drawn) |  | > 100 µM | > 100 µM | > 100 µM | > 100 µM | > 100 µM | > 100 µM | > 100 µM |  |  | > 100 µM |
| Cc1cc(Cc2cc(C)c(NC(=O)C(=O)C3C(=O)NC(=S)NC3=O)c(C(C)C)c2)cc(C(C)C)c1NC(=O)C(=O)C1C(=O)NC(=S)NC1=O |  | > 100 µM | > 100 µM |  | > 100 µM | > 100 µM | > 100 µM | > 100 µM | > 100 µM | > 100 µM | > 100 µM |
